A word on the IC50: it is the concentration that inhibits the measured activity by half. A word on the Ki: it is a dissociation constant, usually derived from enzyme kinetics or from competition with a known ligand. Read a high Ki as lower affinity.

This is an account of results in patent US8563542B2 (Cyclacel Limited, priority 2007, dated 2013).

In the experiment the target is PLK1 (Homo sapiens, UniProt P53350). Kind of experiment: PLK1 protein kinase assay (CDC25C phosphorylation, [γ-32P]-ATP). It counts as biochemical. Particulars: for IC50: read-out: PLK1 IC50.
Sequence of PLK1 (P53350 whole entry): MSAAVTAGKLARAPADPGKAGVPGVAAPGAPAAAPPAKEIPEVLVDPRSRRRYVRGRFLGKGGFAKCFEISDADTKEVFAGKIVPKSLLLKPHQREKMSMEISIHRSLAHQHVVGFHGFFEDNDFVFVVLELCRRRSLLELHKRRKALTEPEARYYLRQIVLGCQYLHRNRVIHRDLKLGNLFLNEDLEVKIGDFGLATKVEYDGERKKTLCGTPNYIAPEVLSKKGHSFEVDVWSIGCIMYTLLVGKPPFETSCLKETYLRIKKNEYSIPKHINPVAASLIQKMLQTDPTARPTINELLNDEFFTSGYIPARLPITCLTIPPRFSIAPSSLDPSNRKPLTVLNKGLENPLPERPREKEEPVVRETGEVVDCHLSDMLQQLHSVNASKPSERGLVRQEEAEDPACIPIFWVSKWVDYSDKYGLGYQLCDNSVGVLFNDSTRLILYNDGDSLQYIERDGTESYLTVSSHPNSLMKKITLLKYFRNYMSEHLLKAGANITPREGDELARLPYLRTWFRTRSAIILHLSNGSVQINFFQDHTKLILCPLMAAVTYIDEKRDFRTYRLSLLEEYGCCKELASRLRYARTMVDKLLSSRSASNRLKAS
The mark [1] stands for this setting: Table 2, PLK1 IC50, class symbols.

Molecules are shown by their SMILES. Like-named read-outs stand apart in the source and are kept apart here.

For the compound `COc1cc(C(=O)NC2CN3CCC2CC3)ccc1Nc1ncc2c(n1)N(C1CCCC1)CC1(CC1)C(=O)N2C` (racemic) [Compound 186, (±)-4-(9′-cyclopentyl-5′-methyl-6′-oxo-5′,6′,8′,9′-tetrahydrospiro[cyclopropane-1,7′-pyrimido[4,5-b][1,4]diazepine]-2′-ylamino)-3-methoxy-N-(quinuclidin-3-yl)benzamide], the IC50 by setting is: under setting [1], less than 100 nM; (Table 3) less than 100 nM. With `COc1cc(C(=O)NC2CN3CCC2CC3)ccc1Nc1ncc2c(n1)N(C1CCCC1)CC(C)(C)C(=O)N2C` (racemic) [Compound 194, (±)-4-(9-cyclopentyl-5,7,7-trimethyl-6-oxo-6,7,8,9-tetrahydro-5H-pyrimido[4,5-b][1,4]diazepin-2-ylamino)-3-methoxy-N-(quinuclidin-3-yl)benzamide], the IC50 is, setting by setting: under setting [1], less than 100 nM; (Table 3) less than 100 nM.

In the case of `COc1cc(C(=O)NN2CCN(C)CC2)ccc1Nc1ncc2c(n1)N(C1CCCC1)CC(C)(C)C(=O)N2C` [Compound 195, 4-(9-Cyclopentyl-5,7,7-trimethyl-6-oxo-6,7,8,9-tetrahydro-5H-pyrimido[4,5-b][1,4]diazepin-2-ylamino)-3-methoxy-N-(4-methyl-piperazin-1-yl)-benzamide], the IC50 by setting is: under setting [1], less than 100 nM; (Table 3) less than 100 nM. For the compound `COc1cc(C(=O)NN2CCN(C)CC2)ccc1Nc1ncc2c(n1)N(C1CCCC1)CC1(CCC1)C(=O)N2C` [Compound 221, 4-(9′-cyclopentyl-5′-methyl-6′-oxo-5′,6′,8′,9′-tetrahydrospiro[cyclobutane-1,7′-pyrimido[4,5-b][1,4]diazepine]-2′-ylamino)-3-methoxy-N-(4-methylpiperazin-1-yl)benzamide], the IC50 runs as follows: under setting [1], less than 100 nM; (Table 3) less than 100 nM. In the case of `COc1cc(C(=O)NN2CCN(C)CC2)ccc1Nc1ncc2c(n1)N(C1CCCC1)CC1(CC1)C(=O)N2C` [Compound 254, 4-(9′-cyclopentyl-5′-methyl-6′-oxo-5′,6′,8′,9′-tetrahydrospiro[cyclopropane-1,7′-pyrimido[4,5-b][1,4]diazepine]-2′-ylamino)-3-methoxy-N-(4-methylpiperazin-1-yl)benzamide], the IC50 reads like this: under setting [1], less than 100 nM; (Table 3) less than 100 nM. Further, where the note is “Table 6”, the Ki was less than 10 nM.

As to `COc1cc(C(=O)NC2CCN(C3CCOCC3)CC2)ccc1Nc1ncc2c(n1)N(C1CCCC1)CCC(=O)N2C` [Compound 345, 4-(9-Cyclopentyl-5-methyl-6-oxo-6,7,8,9-tetrahydro-5H-pyrimido[4,5-b][1,4]diazepin-2-ylamino)-3-methoxy-N-[1-(tetrahydro-pyran-4-yl)-piperidin-4-yl]-benzamide], the IC50 by setting is: under setting [1], less than 100 nM; (Table 3) less than 100 nM. For the compound `COc1cc(C(=O)N[C@H]2CN3CCC2CC3)ccc1Nc1ncc2c(n1)N(C1CCCC1)CC1(CC1)C(=O)N2C` [Compound 347, (R)-4-(9′-cyclopentyl-5′-methyl-6′-oxo-5′,6′,8′,9′-tetrahydrospiro[cyclopropane-1,7′-pyrimido[4,5-b][1,4]diazepine]-2′-ylamino)-3-methoxy-N-(quinuclidin-3-yl)benzamide], the IC50 is, setting by setting: under setting [1], less than 100 nM; (Table 3) less than 100 nM.

On to `COc1cc(C(=O)N[C@@H]2CN3CCC2CC3)ccc1Nc1ncc2c(n1)N(C1CCCC1)CC1(CC1)C(=O)N2C` [Compound 348, (S)-4-(9′-cyclopentyl-5′-methyl-6′-oxo-5′,6′,8′,9′-tetrahydrospiro[cyclopropane-1,7′-pyrimido[4,5-b][1,4]diazepine]-2′-ylamino)-3-methoxy-N-(quinuclidin-3-yl)benzamide], for which the half-maximal inhibitory concentration (IC50) runs as follows: under setting [1], less than 100 nM; (Table 3) less than 100 nM. On to `COc1cc(C(=O)N[C@H]2CC[C@H](N3CCN(CC4CC4)CC3)CC2)ccc1Nc1ncc2c(n1)N(C1CCCC1)CC1(CC1)C(=O)N2C` [Compound 371, 4-(9′-cyclopentyl-5′-methyl-6′-oxo-5′,6′,8′,9′-tetrahydrospiro[cyclopropane-1,7′-pyrimido[4,5-b][1,4]diazepine]-2′-ylamino)-N-((trans)-4-(4-(cyclopropylmethyl)piperazin-1-yl)cyclohexyl)-3-methoxybenzamide], for which the IC50 (Table 3) is less than 100 nM.

For `CN1CCN(NC(=O)c2ccc(Nc3ncc4c(n3)N(C3CCCC3)CC3(CCC3)C(=O)N4C)c(F)c2)CC1` [Compound 373, 4-(9′-cyclopentyl-5′-methyl-6′-oxo-5′,6′,8′,9′-tetrahydrospiro[cyclobutane-1,7′-pyrimido[4,5-b][1,4]diazepine]-2′-ylamino)-3-fluoro-N-(4-methylpiperazin-1-yl)benzamide], the IC50 (Table 3) was less than 100 nM. On the same count and under the same terms, the value for `CN1CCN(NC(=O)c2ccc(Nc3ncc4c(n3)N(C3CCCC3)CC3(CC3)C(=O)N4C)c(F)c2)CC1` [Compound 374, 4-(9′-Cyclopentyl-5′-methyl-6′-oxo-5′,6′,8′,9′-tetrahydrospiro[cyclopropane-1,7′-pyrimido[4,5-b][1,4]diazepine]-2′-ylamino)-3-fluoro-N-(4-methylpiperazin-1-yl)benzamide] was less than 100 nM; that for `COc1cc(C(=O)NN2CCN(CCO)CC2)ccc1Nc1ncc2c(n1)N(C1CCCC1)CC1(CC1)C(=O)N2C` [Compound 375, 4-(9′-Cyclopentyl-5′-methyl-6′-oxo-5′,6′,8′,9′-tetrahydrospiro[cyclopropane-1,7′-pyrimido[4,5-b][1,4]diazepine]-2′-ylamino)-N-(4-(2-hydroxyethyl)piperazin-1-yl)-3-methoxybenzamide] was less than 100 nM. Still for that read-out and setting: to `COc1cc(C(=O)NN2CCOCC2)ccc1Nc1ncc2c(n1)N(C1CCCC1)CC1(CC1)C(=O)N2C` [Compound 376, 4-(9′-Cyclopentyl-5′-methyl-6′-oxo-5′,6′,8′,9′-tetrahydrospiro[cyclopropane-1,7′-pyrimido[4,5-b][1,4]diazepine]-2′-ylamino)-3-methoxy-N-morpholinobenzamide] belongs less than 100 nM.

`COc1cc(C(=O)N[C@H]2CC[C@H](N3CCN(CC4CC4)CC3)CC2)ccc1Nc1ncc2c(n1)N(C1CCCC1)CC1(CCC1)C(=O)N2C` [Compound 377, 4-(9′-cyclopentyl-5′-methyl-6′-oxo-5′,6′,8′,9′-tetrahydrospiro[cyclobutane-1,7′-pyrimido[4,5-b][1,4]diazepine]-2′-ylamino)-N-((trans)-4-(4-(cyclopropylmethyl)piperazin-1-yl)cyclohexyl)-3-methoxybenzamide]: the half-maximal inhibitory concentration (IC50) (Table 3) is less than 100 nM. The same measure, in the same setting: to `COc1cc(C(=O)N[C@H]2CC[C@H](N3CCN(CC4CC4)CC3)CC2)ccc1Nc1ncc2c(n1)N(C1CCCC1)CCC(=O)N2C` [Compound 378, 4-(9-cyclopentyl-5-methyl-6-oxo-6,7,8,9-tetrahydro-5H-pyrimido[4,5-b][1,4]diazepin-2-ylamino)-N-((trans)-4-(4-(cyclopropylmethyl)piperazin-1-yl)cyclohexyl)-3-methoxybenzamide] belongs less than 100 nM. On to `CCN1CCN([C@H]2CC[C@H](NC(=O)c3ccc(Nc4ncc5c(n4)N(C4CCCC4)CC4(CC4)C(=O)N5C)c(OC)c3)CC2)CC1` [Compound 379, 4-(9′-cyclopentyl-5′-methyl-6′-oxo-5′,6′,8′,9′-tetrahydrospiro[cyclopropane-1,7′-pyrimido[4,5-b][1,4]diazepine]-2′-ylamino)-N-((trans)-4-(4-ethylpiperazin-1-yl)cyclohexyl)-3-methoxybenzamide], for which the IC50 (Table 3) was less than 100 nM.
